Experimental data as given in US9918968B2, “Rapamycin analogs targeting proteasome function in the treatment of cancer” (THE BOARD OF REGENTS OF THE UNIVERSITY OF TEXAS SYSTEM, priority 2013, dated 2018).

Assays:
[1] = molecular target: T1, 20S core with 19S, 11S, tRpt5 or tPA200; assay: Activation of 20S core ChT-L activity by α face ligands (19S, 11S, tRpt5, tPA200); assay type: biochemical, human
T1 construct: purchased Enzo LifeSciences (20S, 11S); Boston Biochemicals (19S complex)
Description: (§1) Human purified proteasome complexes were purchased from Enzo LifeSciences or Boston Biochemicals (19S complex). BODIPY-casein (Invitrogen/Molecular Probes) was used as a model protein substrate, with increasing fluorescence of BODIPY labeled peptide products of degradation monitored for up to 8 hours at 37° C. The peptidase activity of the enzyme was measured as arbitrary intensity units of the released fluorescent group 7-amino-4-methylcoumarin (AMC) from peptide substrates, as described. The common substrates specific for the three kinds of active sites: succinyl-LeuLeuValTyr-7-amido-4-methylcoumarin (Suc-LLVY-MCA; for the ChT-L activity; Bachem), butoxycarbonyl-LeuArgArg-MCA (BocLRR-MCA; for T-L; Bachem) and carbobenzoxy-LeuLeuGlu-MCA (CbzLLE-MCA; for PGPH; Enzo Life Sciences International, Inc.) were used at 100 μM final concentrations, unless stated otherwise (Gaczynska and Osmulski, 2005). Proteasome substrates, rapamycin, its derivatives, and competing peptides were stocked in DMSO and diluted 100-fold in the reaction mixtures. The Rpt5 and PA200 C-terminal peptides were synthesized in the Departmental Peptide Synthesis Core using the standard SPPS chemistry. To activate the latent 20S proteasome, 0.005% (final concentration) of sodium dodecyl sulfate (SDS) was used. The reactions were carried out in 96 well plates, with 2.3 nM proteasome and other components as indicated dissolved in 50 mM Tris-HCl buffer (pH 8.0) and incubated at 37° C. for up to 1 hour. The fluorescence of products was monitored every 2 minutes with a Fluoroskan Ascent plate reader. Reaction rates were calculated from smoothed linear segment of kinetic curves using OriginPro 8.6 (OriginLabs, Northampton, Mass.). For the determination of an inhibition type, at least six distinct substrate concentrations and two inhibitor concentrations were used. The kinetic parameters of inhibition were analyzed in terms of the Michaelis-Menten formalism using the enzyme kinetic module of SigmaPlot v.12 (Systat Software, Inc, San Jose, Calif.) to perform the respective calculations.
De novo assembly of 19S from subunits is a complex process assisted by chaperones. In vitro, and likely also in cells, the 26S can also be reconstructed from 20S and the already-assembled 19S particle in the presence of ATP (Smith et al., 2005). Enhancement of the peptidase activities of the core proteasome is an established test for efficiency of the in vitro reconstruction. […] In contrast, a pretreatment of 20S with 5 μM rapamycin before adding ATP and 19S totally abrogated the activation, leaving the proteasome almost 40% inhibited instead (FIG. 6).

[2] = molecular target: T2, human 20S proteasome, ChT-L peptidase; assay: ChT-L peptidase activity of purified human 20S proteasome (Suc-LLVY-MCA); assay type: biochemical; conditions: for IC50: latent human 20S proteasome
T2 construct: purchased Enzo LifeSciences
Description: as §1, with “The common substrates specific for the three kinds of active sites: succinyl-LeuLeuValTyr-7-amido-4-methylcoumarin (Suc-LLVY-MCA; for the ChT-L activity; Bachem), butoxycarbonyl-LeuArgArg-MCA (BocLRR-MCA; for T-L; Bachem) and carbobenzoxy-LeuLeuGlu-MCA (CbzLLE-MCA; for PGPH; Enzo Life Sciences International, Inc.) were used at 100 μM final concentrations, unless stated otherwise (Gaczynska and Osmulski, 2005).” left out, “The reactions were carried out in 96 well plates, with 2.3 nM proteasome and other components as indicated dissolved in 50 mM Tris-HCl buffer (pH 8.0) and incubated at 37° C. for up to 1 hour.” left out, “calculations. […]” for “calculations.”
The in vitro assay for testing the ChT-L peptidase activity of the purified human 20S proteasome was performed as described above.

[3] = molecular target: T3, human 20S proteasome, PGPH peptidase; assay: PGPH peptidase activity of purified human 20S proteasome (CbzLLE-MCA); assay type: biochemical; conditions: for IC50: latent human 20S proteasome
T3 construct: purchased Enzo LifeSciences
Description: as §1
(§2) IC50 values (a drug concentration causing 50% inhibition of the indicated enzymatic activity) were calculated for ChT-L and PGPH peptidases. Kd (dissociation constant) and Bmax (maximal activation effect achieved; in % above the control activity) values were calculated for the T-L peptidase. Mean±SD from n=2 or 3 experiments, or data from representative experiments set in duplicates or triplicates, are presented in the table. All three peptidase activities changed by no more than ±20%, without a concentration-dependent trend, upon treatment with up to 10 μM of rapamycin unrelated mTOR inhibitors PI-103 or NVP-BEZ235, in two independent experiments.

[4] = molecular target: T4, human 20S proteasome, T-L peptidase; assay: T-L peptidase activity of purified human 20S proteasome (BocLRR-MCA); assay type: biochemical; conditions: for Kd: activation of T-L peptidase; for Bmax [%]: T-L: maximal activation effect, % above the control activity
T4 construct: purchased Enzo LifeSciences
Description: as §1, §2

20S proteasome α face = system: T5, 20S proteasome α face; assay: AFM imaging of open/closed conformers of 20S proteasome α face; design: species or system human; conditions: 10 μM compound
T5 construct: purchased Enzo LifeSciences
Description: AFM imaging of the 20S proteasomes were performed as previously described, in tapping (oscillating) mode in liquid (Osmulski et al., 2009 and Gaczynska and Osmulski, 2011). In short, 3 μL of proteasome preparations diluted to nanomolar concentration were deposited on a freshly cleaved muscovite mica surface. After 2 min incubation allowing electrostatic attachment of the protein particles to mica the droplet was overlaid with 30 microL of 50 mM Tris-HCl buffer (pH 7.0) and mounted in the wet chamber of a MultiMode NanoScope Ma (Bruker Corp.). Oxide-sharpened silicon nitride tips on cantilevers with a nominal spring constant 0.32 N/m (Bruker Corp.) were used to image 1 μm^2 fields in the height mode, with a scan rate of 3.05 Hz. The excitation frequency was manually tuned to 9-10 kHz, with a drive voltage of 200-500 mV and a relatively high set point (1.6 V to 1.9 V) to assure tapping with low, non-destructive force. […] As the inventors established previously, such resolution was sufficient to detect distinct conformations of the α face, covered by six scan lines. Multiple fields were scanned for each sample to collect images of hundreds of particles. Selected fields were repeatedly scanned to monitor changes in topography of the same particles for prolonged time. Inhibitors and the SucLLVY-MCA substrate were diluted in 10 μL of the imaging buffer and directly injected into the chamber. Raw images are presented, with a standard plain-fit and flattening (NanoScope software v.5.12) used as the only processing tools. For display purposes the brightness and contrast of the images was adjusted with the Nanoscope software or with Adobe Photoshop (Adobe Systems Inc.), and outlier scan lines were occasionally manually removed (Nanoscope software). Top view (“standing”, rounded) proteasomes were distinguished from the minor population of side-view (“lying”, rectangular) particles as described, by comparison of their length—to width ratios (Osmulski et al., 2009). The dimensions of particles were approximated and a shape of the α face in top-view proteasomes was judged with the help of a section tool in the Nanoscope v.5.12 or SPIP v.6.02 software (Image Metrology).
For this purpose, the inventors used the noninvasive tapping mode atomic force microscopy (AFM) in liquid, the imaging technique suitable for analysis of surface topography of macromolecules in their native state with a nanometer-scale practical resolution. The inventors established before that AFM imaging is a useful tool for studying structural dynamics of the 20S α face (Osmulski et al., 2009, Gaczynska et al., 2003; Gaczynska et al., 2011). They acquired and analyzed images of hundreds of single native, fully active 20S molecules. The majority of particles were in top-view (“standing”) position conveniently allowing for imaging of their α faces. […] Following previous extensive studies, the inventors refer to the two forms as “closed-gate” and “open-gate” proteasomes, respectively (Osmulski et al., 2009). As described before, the inventors used the shape of sections carried out in four directions through the top portion of the surface topography of the α ring to distinguish between the two forms. In short, the particle was classified as closed if all four sections were cone-shaped. In contrast, the particle was classified as open if all sections presented a dip surrounded by a rim (FIG. 5A) (Osmulski, et al., 2009). The same particles imaged in consecutive scans were able to assume either closed or open conformations, however the cone-shaped particles were always more abundant than crater-shaped, and accounted for about three-quarters of the imaged molecules (FIG. 5B). Addition of rapamycin to the imaged particles remarkably changed the partition of forms. […]

Compound | IC50 [2] [µM] | IC50 [3] [µM] | Kd [4] [µM] | Bmax [%]: T-L [4] [%] | further results
11S: 11S proteasome activator complex PA28/REG | – | – | – | – | increase of ChT-L activity by protein complex ([1]; 1:1 molar ratio with 20S): 8 fold
C=CC[C@@H]1/C=C(\C)C[C@H](C)C[C@H](OC)[C@H]2O[C@@](O)(C(=O)C(=O)N3CCCC[C@H]3C(=O)O[C@H](/C(C)=C/[C@@H]3CC[C@@H](O)[C@H](OC)C3)[C@H](C)[C@@H](O)CC1=O)[C@H](C)C[C@@H]2OC [FK-506] | > 20 | 0.93 ± 0.04 | 1.14 | 257 | lowering of activation by tRpt5 ([1]; 10 μM derivative, 10 μM tRpt5): about 30%; inhibition of proteasome with or without tPA200 ([1]; 10 μM derivative, presence or absence of 10 μM tPA200): about 40%
Oc1cccc(-c2nc(N3CCOCC3)c3oc4ncccc4c3n2)c1 [PI-103] | – | – | – | – | closed conformers (20S proteasome α face): 74%±4%; closed conformers after substrate (20S proteasome α face; then SucLLVY-MCA 100 μM): 29%±5%; effect on activation of 20S with 19S ([1]; 5 μM): no detectable effects
CO[C@H]1C[C@@H]2CC[C@@H](C)[C@@](O)(O2)C(=O)C(=O)N2CCCC[C@H]2C(=O)O[C@H]([C@H](C)C[C@@H]2CC[C@@H](OCCO)[C@H](OC)C2)CC(=O)[C@H](C)/C=C(\C)[C@@H](O)[C@@H](OC)C(=O)[C@H](C)C[C@H](C)/C=C/C=C/C=C/1C [everolimus] | 2.5 ± 0.7 | 0.48 ± 0.11 | 0.07 | 93 | –
CC[C@@H]1/C=C(\C)C[C@H](C)C[C@H](OC)[C@H]2O[C@@](O)(C(=O)C(=O)N3CCCC[C@H]3C(=O)O[C@H](/C(C)=C/[C@@H]3CC[C@H](Cl)[C@H](OC)C3)[C@H](C)[C@@H](O)CC1=O)[C@H](C)C[C@@H]2OC [pimecrolimus] | > 20 | 0.57 ± 0.12 | 1.82 | 483 | remaining ChT-L activity ([2]; 5 μM pimecrolimus alone): 82%; IC50 for PGPH increase as compared with rapamycin ([3]; relative to rapamycin): 40%; closed conformers (20S proteasome α face): ~40%; open conformers (20S proteasome α face): about 60%
CO[C@H]1C[C@@H]2CC[C@@H](C)[C@@](O)(O2)C(=O)C(=O)N2CCCC[C@H]2C(=O)O[C@H]([C@H](C)C[C@@H]2CC[C@@H](O)[C@H](OC)C2)CC(=O)[C@H](C)/C=C(\C)[C@@H](O)[C@@H](OC)C(=O)[C@H](C)C[C@H](C)/C=C/C=C/C=C/1C [rapamycin] | 1.9 ± 0.2 | 0.41 ± 0.03 | 0.14 | 83 | remaining ChT-L activity ([2]; 2 μM rapamycin alone): 70%; ChT-L peptidase activity ([2]; 2 μM, % of DMSO control, representative experiment): 52%; ChT-L peptidase activity after 10-fold dilution ([2]; after incubation with 2 μM, 10-fold dilution): 99%; Ki ([2]; mixed inhibition model): 490 nM; PGPH peptidase activity ([3]; 0.2 μM, % of control): 48%; PGPH peptidase activity after 10-fold dilution ([3]; after incubation with 0.2 μM, 10-fold dilution): 96%; Ki ([3]; noncompetitive inhibition): 250 nM; inhibition of ChT-L activity, 20S pretreated before ATP and 19S ([1]; 5 μM, 19S 1:1): ~40%; inhibition of proteasome in presence of tPA200 ([1]; 10 μM compound, 10 μM tPA200): 50%
CO[C@H]1C[C@@H]2CC[C@@H](C)[C@@](O)(O2)C(=O)C(=O)N2CCCC[C@H]2C(=O)O[C@H]([C@H](C)C[C@@H]2CC[C@@H](OP(C)(C)=O)[C@H](OC)C2)CC(=O)[C@H](C)/C=C(\C)[C@@H](O)[C@@H](OC)C(=O)[C@H](C)C[C@H](C)/C=C/C=C/C=C/1C [ridaforolimus] | 2.9 ± 0.5 | 0.43 ± 0.11 | 0.11 | 114 | –
CO[C@H]1C[C@@H]2CC[C@@H](C)[C@@](O)(O2)C(=O)C(=O)N2CCCC[C@H]2C(=O)O[C@H]([C@H](C)C[C@@H]2CC[C@@H](OC(=O)C(C)(CO)CO)[C@H](OC)C2)CC(=O)[C@H](C)/C=C(\C)[C@@H](O)[C@@H](OC)C(=O)[C@H](C)C[C@H](C)/C=C/C=C/C=C/1C [temsirolimus] | 2.1 ± 0.2 | 0.36 ± 0.03 | 0.19 | 81 | IC50 for ChT-L lower than rapamycin ([2]; relative to rapamycin): ~40%; IC50 for PGPH lower than rapamycin ([3]; relative to rapamycin): 20%
